Assay results as given in ChEMBL document CHEMBL3132797, “Synthesis and biological evaluation of substituted N-alkylphenyl-3,5-dinitrobenzamide analogs as anti-TB agents” (Medchemcomm, 2014).
Values after ≈ are worked out from the molar mass of the structure shown.

What was measured:
[1] = system: Mycobacterium tuberculosis; test: Antimycobacterial activity against Mycobacterium tuberculosis H37Rv ATCC 27294 by broth dilution method; type: functional
J774 [2] = test: Cytotoxicity against mouse J774 cells at 20 ug/ml after 24 hrs by MTT assay; type: cell-based; details: j774, 24 h
[3] = Selectivity index, ratio of IC50 for mouse J774 cells to MIC for Mycobacterium tuberculosis H37Rv ATCC 27294; type: toxicity, cell-based; details: read-out: Selectivity Index
[4] = system: Mycobacterium tuberculosis; test: Bactericidal activity against Mycobacterium tuberculosis H37Rv ATCC 27294 by broth dilution method; type: functional
[5] = system: Mycobacterium tuberculosis; test: Antimycobacterial activity against Mycobacterium tuberculosis H37Rv ATCC 27294 infected in mouse J774 cells assessed as intracellular killing after 48 hrs by colony formation assay; type: functional; details: H37Rv ATCC 27294, 48 h
J774 [6] = test: Cytotoxicity against mouse J774 cells after 24 hrs by MTT assay; type: cell-based; details: J774, 24 h

Cc1c([N+](=O)[O-])cc(C(=O)N[C@H](C)c2ccccc2)cc1[N+](=O)[O-]
MIC [1]: 0.36 µM (≈ 0.119 µg/mL)

O=C(Nc1ccc(OC(F)(F)F)cc1)c1cc([N+](=O)[O-])cc([N+](=O)[O-])c1
MIC [1]: 2.7 µM (≈ 1 µg/mL)

Cc1ccc(CNC(=O)c2cc([N+](=O)[O-])cc([N+](=O)[O-])c2)cc1
MIC [1]: 3.17 µM (≈ 0.999 µg/mL)

O=C(Nc1ccccc1F)c1cc([N+](=O)[O-])cc([N+](=O)[O-])c1
MIC [1]: 26.1 µM (≈ 7.96 µg/mL)

CC[C@@H](C)NC(=O)c1cc([N+](=O)[O-])cc([N+](=O)[O-])c1
MIC [1]: 1.87 µM (≈ 0.5 µg/mL)

O=C(Nc1cc(Cl)cc(Cl)c1)c1cc([N+](=O)[O-])cc([N+](=O)[O-])c1
MIC [1]: 22.5 µM (≈ 8.02 µg/mL)

C[C@@H](NC(=O)c1cc([N+](=O)[O-])cc([N+](=O)[O-])c1)c1ccc(Cl)cc1
MIC [1]: 0.17 µM (≈ 0.0595 µg/mL)

COc1ccc([C@H](C)NC(=O)c2cc([N+](=O)[O-])cc([N+](=O)[O-])c2)cc1
MIC [1]: 0.35 µM (≈ 0.121 µg/mL)

COc1ccc([C@H](C)NC(=O)c2cc([N+](=O)[O-])c(C)c([N+](=O)[O-])c2)cc1
MIC [1]: 1.39 µM (≈ 0.499 µg/mL)

O=C(NCCCCc1ccccc1)c1cc([N+](=O)[O-])cc([N+](=O)[O-])c1
MIC [1]: 0.35 µM (≈ 0.12 µg/mL)

CCCCC[C@H](C)NC(=O)c1cc([N+](=O)[O-])cc([N+](=O)[O-])c1
MIC [1]: 1.62 µM (≈ 0.501 µg/mL)

COc1ccc([C@@H](C)NC(=O)c2cc([N+](=O)[O-])cc([N+](=O)[O-])c2)cc1
MIC [1]: 2.9 µM (≈ 1 µg/mL)

C[C@H](NC(=O)c1cc([N+](=O)[O-])cc([N+](=O)[O-])c1)c1ccc(Cl)cc1
MIC [1]: 1.43 µM (≈ 0.5 µg/mL)

C[C@@H](NC(=O)c1cc([N+](=O)[O-])cc([N+](=O)[O-])c1)c1ccccc1
Activity (J774 [2]): Non-toxic
selectivity ratio [3]: > 333
MIC [1]: 0.19 µM (≈ 0.0599 µg/mL)
MBC [4]: 0.19 µM (≈ 0.0599 µg/mL)
MIC [5]: 0.76 µM (≈ 0.24 µg/mL)
IC50 (J774 [6]): > 63.5 µM

Cc1ccc([C@H](C)NC(=O)c2cc([N+](=O)[O-])cc([N+](=O)[O-])c2)cc1
MIC [1]: 0.76 µM (≈ 0.25 µg/mL)

CCC[C@@H](NC(=O)c1cc([N+](=O)[O-])cc([N+](=O)[O-])c1)c1ccccc1
MIC [1]: 2.91 µM (≈ 0.999 µg/mL)

Cc1c([N+](=O)[O-])cc(C(=O)N[C@H](C)c2ccc(F)cc2)cc1[N+](=O)[O-]
Activity (J774 [2]): Non-toxic
selectivity ratio [3]: > 333
MIC [1]: 0.17 µM (≈ 0.059 µg/mL)
MBC [4]: 0.17 µM (≈ 0.059 µg/mL)
MIC [5]: 0.71 µM (≈ 0.247 µg/mL)
IC50 (J774 [6]): > 57.6 µM

CC(C)c1ccc(NC(=O)c2cc([N+](=O)[O-])cc([N+](=O)[O-])c2)cc1
MIC [1]: 12.1 µM (≈ 4 µg/mL)

CC[C@@H](NC(=O)c1cc([N+](=O)[O-])cc([N+](=O)[O-])c1)c1ccccc1
MIC [1]: 0.76 µM (≈ 0.25 µg/mL)

CC[C@H](C)NC(=O)c1cc([N+](=O)[O-])cc([N+](=O)[O-])c1
MIC [1]: > 3.74 µM

COc1ccc([C@@H](C)NC(=O)c2cc([N+](=O)[O-])c(C)c([N+](=O)[O-])c2)cc1
MIC [1]: 0.7 µM (≈ 0.252 µg/mL)

O=C(Nc1cccc(F)c1)c1cc([N+](=O)[O-])cc([N+](=O)[O-])c1
MIC [1]: 3.28 µM (≈ 1 µg/mL)

CCCCCCNC(=O)c1cc([N+](=O)[O-])cc([N+](=O)[O-])c1
MIC [1]: 1.69 µM (≈ 0.499 µg/mL)

Cc1ccc([C@H](C)NC(=O)c2cc([N+](=O)[O-])c(C)c([N+](=O)[O-])c2)cc1
MIC [1]: 11.7 µM (≈ 4 µg/mL)

O=C(Nc1ccc(C(F)(F)F)cc1)c1cc([N+](=O)[O-])cc([N+](=O)[O-])c1
MIC [1]: 2.82 µM (≈ 1 µg/mL)
